Results on one molecule are retold here after publication PMC4848641, “The Scorpion Toxin Analogue BmKTX-D33H as a Potential Kv1.3 Channel-Selective Immunomodulator for Autoimmune Diseases” (Toxins, 2016).

“Also recorded” adds a separate entry of the source. Where a SMILES comes first, the peptide text is derived from it. Bridges are numbered along the chain shown (N, C = ends).

In one data set the test system is KCa2.3. The data set is described as follows: Whole-cell patch-clamp, KCa2.3 channel currents (transfected HEK293 cells). It is filed as cell-based. The note with it: micromolar concentration (1 μM), pH 7.4. The procedure:
(§1) Whole cell patch-clamp recordings of Kv1.3 channel were obtained from human T cells. Electrophysiological experiments of other assayed potassium channels were performed on HEK293 cells transfected with cDNA encoding Kv1.1, Kv1.2, Kv1.3, Kv7.1, Kv11.1, KCa2.2, KCa2.3, and KCa3.1 channels using TurboFect Reagent (ThermoSci., Waltham, MA, USA). The cDNAs were subcloned into the Xho I/Bam HI sites of pIRES2-EGFP, a bicistronic expression vector (Clontech, Mountain View, CA, USA) coexpressed with enhanced GFP. The constructs were verified by DNA sequencing. Currents were recorded on eGFP-expression positive cells one to three days post-transfection. Electrophysiological experiments were performed using protocols according to previously published references. Cells were bathed with mammalian Ringer’s solution: 5 mM KCl, 140 mM NaCl, 2 mM CaCl2, 1 mM MgCl2, […], 10 mM D-glucose (adjusted to pH 7.4 with NaOH). A multichannel microperfusion system MPS-2 (INBIO Inc, Wuhan, China) was used to exchange the external recording bath solution. […] Membrane currents were measured with an EPC 10 patch clamp amplifier (HEKA Elektronik, Lambrecht/Pfalz, Germany) interfaced to a computer running acquisition and analysis software (Pulse, v8.80, HEKA Elektronik, Lambrecht/Pfalz, Germany). […]

Another data set relates to KCa2.2. In words: Whole-cell patch-clamp, KCa2.2 channel currents (transfected HEK293 cells). In kind it is cell-based. The note with it: micromolar concentration (1 μM), pH 7.4. As for the experimental part:
as §1
Background: The patch-clamp technique gives a direct electrical read-out from membranes.

The next data set has as its system Kv1.7. The data set is described as follows: Whole-cell patch-clamp, Kv1.7 (Kv7.1 in legend and methods) channel currents (transfected HEK293 cells). It is filed as cell-based. The settings on record: micromolar concentration (1 μM), pH 7.4. The procedure: as §1
In data set [1] the test system is Kv1.3 channels on the freshly isolated CD3^+ T cells. The data set is described as follows: Whole-cell patch-clamp, Kv1.3 currents in freshly isolated human CD3^+ T cells. In kind it is cell-based. The note with it: pH 7.4, means ± S.E. of at least three experiments. As for the experimental part: as §1
The next data set deals with Kv1.1. The data set is described as follows: Whole-cell patch-clamp, Kv1.1 channel currents (transfected HEK293 cells). It is filed as cell-based. The note with it: 1 μM, −80 mV to +50 mV, pH 7.4, means ± S.E. of at least three experiments. The procedure: as §1
In data set [2] the test system is Kv1.3 channel. The note with it: ref [29], cited from earlier work. From the text: The venomous scorpions, which have lived on earth for over 400 million years, rely on their venoms for their efficient defense and capture strategy. During their molecular evolution, scorpions produced hundreds of peptide-based toxins in their venoms, typically targeting ion channels with a high degree of molecular diversity. Accordingly, scorpion venoms have been considered as invaluable resources of ion channel inhibitors. […] Because ADWX-1 is a potent blocker of the […] channel (IC50 value of 0.6 nM), we further investigated the pharmacological profile of BmKTX-D33H. || The most remarkable feature of BmKTX-D33H is its sought-after selectivity towards the Kv1.3 channel. Indeed, improving the selectivity of scorpion toxins (especially Kv1.1 versus Kv1.3 channel subtypes) still remains a serious challenge. […] For ADWX-1 ...

The subject of the next data set is Lewis rats. The data set is described as follows: Active delayed-type hypersensitivity (DTH), ear swelling. In kind it is in vivo. The settings on record: female Lewis rats; 100 μg/kg, single subcutaneous injection at ovalbumin challenge; 4, 6, and 24 h after challenge; vs vehicle control. The procedure:
The animal trial was approved by the Animal Use and Care Committee of the Wuhan University. Female Lewis rats (9–10 weeks of age) were purchased from Charles River Laboratories and housed under pathogen-free conditions. Active DTH was induced as describe previously by immunizing rats against antigen of ovalbumin (Sigma-Aldrich, Munich, Germany) emulsified with complete Freund’s adjuvant (Sigma-Aldrich, Munich, Germany). The emulsion was injected subcutaneously into Lewis rats in order to prime the immune system and develop memory T cells. Seven days later, the rats were challenged again with ovalbumin (20 μg in 20 μL of saline solution) in the pinna of one ear (challenged ear). The other side of ear received saline solution as challenge control. Rats in control group received a single subcutaneous injection of 0.5 mL vehicle (saline solution) in the scruff of the neck, at the time of second-challenge. Whereas, rats in drug-treatment group received 100 μg/kg BmKTX-D33H (in 0.5 mL vehicle) administrated using the same method. The change for thickness of ear (at 4, 6, and 24 h post-challenge) was measured as an indication of the inflammatory reaction and DTH severity.

The test system of data set [3] is CD3^+ T cells. In kind it is cell-based. The settings on record: human CD3^+ T cells, anti-CD3/CD28 beads, 48 h; CellTiter 96 AQueous One Solution, 490 nm. The procedure: (§2) Peripheral blood (PB) obtained from four healthy volunteers was approved by the Ethics Committee of the College of Life Sciences in Wuhan University (Permit number: ECCLS20120076, approved at 3 May 2012). Ficoll gradients were used to isolate mononuclear cells from PB. The CD3^+ T cells were then purified using EasySep Isolation Kit (StemCell Technologies, Vancouver, BC, Canada), and cultured at density of 5 × 10^5 cells per cm^2 in RPMI-1640 medium supplemented with 2 mM glutamine, and 10% FBS. All the T-cells were cultured at a temperature of 37 °C in a humidified 95% air and 5% CO2 atmosphere. The Jurkat cells were stimulated with 100 ng/ml phorbol ester (PMA) (Sigma-Aldrich, Munich, Germany) and […] Ionmycin (ION) (Sigma-Aldrich, Munich, Germany). The CD3^+ T cells were stimulated with anti-CD3/CD28 antibodies beads (Life Technologies, Waltham, MA, USA). BmKTX-D33H (ranged from 0.1 to 100 nM) was added for 1 h prior to stimulation.
(§3) The Jurkat cells or peripheral blood CD3^+ cells were seeded in round-bottom plates (Corning-costar) at 5 × 10^5 cells per cm^2. […] The cells were cultured for 48 h, and cell proliferation was measured using CellTiter 96 AQueous One Solution Cell Proliferation Assay Kit (Promega, Madison, WI, USA) in accordance with the manufacturer’s guide. Absorbance was read at a wavelength of 490 nm.

Data set [4] has as its system Kv1.3 channel. The data set is described as follows: Selectivity towards the Kv1.3 channel over other K^+ channels. It is filed as cell-based. The settings on record: versus Kv1.1, Kv1.2, Kv1.7 (Kv7.1), Kv11.1, KCa2.2, KCa2.3, and KCa3.1. As for the experimental part: as §1
Data set [5] has as its system Jurkat cells. In kind it is cell-based. The note with it: 48 h post-stimulation with 100 ng/mL PMA and 1 mM Ionmycin; CellTiter 96 AQueous One Solution, 490 nm.
Source text: (§4) Jurkat E6-1 cells were obtained from the American Tissue Culture Collection (ATCC, Manassas, VA, USA) and cultured in RPMI-1640 supplied with 10% fetal bovine serum (FBS).
as §2, with “The CD3^+ T cells were stimulated with anti-CD3/CD28 antibodies beads (Life Technologies, Waltham, MA, USA). BmKTX-D33H (ranged from 0.1 to 100 nM) was added for 1 h prior to stimulation.” left out
as §3

The subject of the next data set is Kv11.1. It is filed as cell-based. The note with it: micromolar concentration (1 μM); HEK293 cells, patch-clamp, pH 7.4. The procedure: as §1
A further data set relates to Kv1.2. In words: Whole-cell patch-clamp, Kv1.2 channel currents (transfected HEK293 cells). It is filed as cell-based. The note with it: micromolar concentration (1 μM), pH 7.4. As for the experimental part: as §1
The next data set concerns KCa3.1. The data set is described as follows: Whole-cell patch-clamp, KCa3.1 channel currents (transfected HEK293 cells). It is filed as cell-based. The settings on record: micromolar concentration (1 μM), pH 7.4. The procedure: as §1
Data set [6] concerns Jurkat cells.
Source text: as §4
(§5) Peripheral blood (PB) obtained from four healthy volunteers was approved by the Ethics Committee of the College of Life Sciences in Wuhan University (Permit number: ECCLS20120076, approved at 3 May 2012). Ficoll gradients were used to isolate mononuclear cells from PB. The CD3^+ T cells were then purified using EasySep Isolation Kit (StemCell Technologies, Vancouver, BC, Canada), and cultured at density of 5 × 10^5 cells per cm^2 in RPMI-1640 medium supplemented with 2 mM glutamine, and 10% FBS. […]
as §3
(§6) The IL-2, IFN-γ, and TNF-α levels in supernatants of stimulated cells were measured with ELISA kit (Dakewei, Shenzhen, China) following the manufacturer’s protocol. Absorbance was measured with an automatic plate reader at a wavelength of 450 nm with reference at 630 nm.

The test system of another data set is Kv1.3 channels. In words: Whole-cell patch-clamp, Kv1.3 channel currents. It is filed as cell-based. The note with it: 10 pM, 200 ms depolarizing steps from holding potential −80 mV to +50 mV, pH 7.4, means ± S.E. of at least three experiments. As for the experimental part: as §1
Data set [7] concerns CD3^+ T cells. The settings on record: pre-incubation for 1 h before activation; anti-CD3/CD28 beads; ELISA. As for the experimental part:
as §5, with “FBS. All the T-cells were cultured at a temperature of 37 °C in a humidified 95% air and 5% CO2 atmosphere.” for “FBS.”
as §3, §6

By IC50 is commonly meant the concentration that gives 50% inhibition. For `CC[C@H](C)[C@H](NC(=O)CNC(=O)[C@@H](N)C(C)C)C(=O)N[C@@H](CC(N)=O)C(=O)N[C@H](C(=O)N[C@@H](CCCCN)C(=O)N[C@H]1CSSC[C@@H]2NC(=O)[C@H](CCCCN)NC(=O)CNC(=O)[C@H](Cc3ccccc3)NC(=O)[C@H](CCCNC(=N)N)NC(=O)[C@H](CCSC)NC(=O)CNC(=O)[C@H](C)NC(=O)[C@H](CC(=O)O)NC(=O)[C@H](CCCCN)NC(=O)[C@@H]3CSSC[C@@H](C(=O)N[C@H](C(=O)N4CCC[C@H]4C(=O)N[C@@H](CCCCN)C(=O)O)[C@@H](C)O)NC(=O)[C@H](Cc4c[nH]cn4)NC(=O)[C@H](CSSC[C@H](NC(=O)[C@H](CCC(N)=O)NC(=O)CNC(=O)[C@H](CO)NC(=O)[C@H](Cc4c[nH]cn4)NC(=O)[C@H](CCCCN)NC1=O)C(=O)N[C@@H](CC(C)C)C(=O)N[C@@H](CCCCN)C(=O)N1CCC[C@H]1C(=O)N3)NC(=O)[C@H](CCCCN)NC(=O)CNC(=O)[C@H](CC(N)=O)NC(=O)[C@H]([C@@H](C)CC)NC2=O)C(C)C` [BmKTX-D33H] (H-VGINVKCKHSGQCLKPCKDAGMRFGKCINGKCHCTPK-OH; disulfide 7-27, 13-32, 17-34; N-terminus and C-terminus assumed), the “sensitivity of KCa2.3 channel” value in the data set with KCa2.3 is on record as “much less sensitive”. Moreover, in the data set on KCa2.2, the “sensitivity of KCa2.2 channel” value was “much less sensitive”. Further, in the data set with Kv1.7, the “sensitivity of Kv1.7 channel” value is listed as “much less sensitive”. Further, the “inhibition of Kv1.3 currents in CD3^+ T cells” value in [1] (1 nM) is given as 63.3% ± 2.9%; in [1] (10 nM), 90.7% ± 2.1%. Moreover, the “inhibition of Kv1.1 channel currents” value with Kv1.1 is “about 46.6% ± 2.0%”. In addition, the “potency on the Kv1.3 channel compared with wild-type BmKTX” value with Kv1.3 channel [2] (compared to wild-type BmKTX) is recorded as “increased potency (as compared to wild-type BmKTX)”. In addition, the IC50 in the data set with Kv1.3 channel [2] is 0.0154 nM; in the data set with Jurkat cells [6] (33 h), 23.9 ± 20.1 nM. Also, in the data set on Lewis rats, the “DTH response, change of ear thickness” value is “significantly improved the delayed-type hypersensitivity (DTH) responses; also recorded: changes of ear thickness were significantly reduced; also recorded: dramatically reduced the in vivo DTH responses”. Also, the “proliferation (growth) of CD3^+ cells” value in the data set on CD3^+ T cells [3] is “suppressed the growth of CD3^+ cells; also recorded: Suppression of cytokine production and in vitro proliferation”. For the same molecule, in the data set with Kv1.3 channel [4], the “selectivity towards the Kv1.3 channel as compared to other K^+ channels” value is recorded as “more than 1000 fold”. Further, the “proliferation (growth) of Jurkat cells” value in the data set with Jurkat cells [5] is “significantly inhibited; also recorded: Proliferation of activated Jurkat cells was suppressed”. Besides, the “sensitivity of Kv11.1 channel” value in the data set with Kv11.1 is “much less sensitive”. Also, the “sensitivity of Kv1.2 channel” value in the data set with Kv1.2 is recorded as “much less sensitive”. Besides, the “sensitivity of KCa3.1 channel” value in the data set with KCa3.1 is “much less sensitive”. The “IL-2 expression of Jurkat cells” value in the data set on Jurkat cells [6] (stimulated by PMA + ION, ELISA) is “significantly reduced”. Moreover, the “inhibition of Kv1.3 channel currents” value in the data set on Kv1.3 channels was 56.0% ± 2.0%. Also, the “IFN-γ, TNF-α and IL-2 secretion of human T cells” value in the data set on CD3^+ T cells [7] was “robust dose-dependent reduction”.
